# Reference: patent publication US12091425B2 (AMGEN INC., priority 2016, dated 2024)
# Tests used:
# [1] = biological target: T1, Mcl-1/Bim interaction, recombinant human Mcl-1 (171-327) (Homo sapiens, UniProt Q07820); assay: Cell free Mcl-1: Bim Affinity Assay (Mcl-1 HTRF); assay type: binding; settings: TR-FRET, 0.1 nM Mcl-1 (171-327), 0.05 nM biotin-Bim (51-76)
# T1 construct: made in house
# Summary of the method: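 Read-out is time-resolved FRET after overnight incubation, using a biotin-labelled peptide from human Bim (51-76) as the binding partner; IC50 was derived from competition curves.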
# [2] = test system: OPM-2 human multiple myeloma cell line; assay: Cell Viability Assay (OPM-2 10 FBS); assay type: cell-based; settings: Homo sapiens, OPM-2, 16 h, OPM-2 cells, 16 h, CellTiter-Glo
# Summary of the method: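 IC50 from 4-parameter logistic fit of CellTiter-Glo luminescence. 3000 cells/well, 10% FBS medium, serial compound dilutions, 16 h, 37 °C/5% CO2; read 25 min post-reagent.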
# T1 sequence (Q07820 171-327): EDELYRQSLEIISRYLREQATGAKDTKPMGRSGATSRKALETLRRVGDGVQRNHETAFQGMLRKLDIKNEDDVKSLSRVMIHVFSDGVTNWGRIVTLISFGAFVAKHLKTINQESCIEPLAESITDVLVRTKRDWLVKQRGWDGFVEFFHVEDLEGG
SMILES,IC50 [1],IC50 [2]
"C[C@@H]1[C@@H](C)C/C=C/[C@H](OCC(=O)O)[C@@H]2CC[C@H]2CN2C[C@@]3(CCCc4cc(Cl)ccc43)COc3ccc(cc32)C(=O)NS1(=O)=O [Example 292, (((1S,3′R,6′R,7′S,8′E,11′S,12′R)-6-chloro-11′,12′-dimethyl-13′,13′-dioxido-15′-oxo-3,4-dihydro-2H-spiro[naphthalene-1,22′-[20]oxa[13]thia[1,14]diazatetracyclo[14.7.2.0^3,6.0^19,24]pentacosa [8,16,18,24]tetraen]-7′-yl)oxy)acetic acid]",0.0929 nM,1110 nM
"C[C@@H]1[C@@H](C)C/C=C/[C@H](OCC(=O)O)[C@@H]2CC[C@H]2CN2C[C@@]3(CCCc4cc(Cl)ccc43)COc3cc(CC(=O)O)c(cc32)C(=O)NS1(=O)=O [Example 293, ((1S,3′R,6′R,7′S,8′E,11′S,12′R)-7′-(carboxymethoxy)-6-chloro-11′,12′-dimethyl-13′,13′-dioxido-15′-oxo-3,4-dihydro-2H-spiro[naphthalene-1,22′-[20]oxa[13]thia[1,14]diazatetracyclo[14.7.2.0^3,6.0^19,24]pentacosa [8,16,18,24]tetraen]-17′-yl)acetic acid]",0.36 nM,27600 nM
"CNC(=O)CO[C@H]1/C=C/C[C@H](C)[C@@H](C)S(=O)(=O)NC(=O)c2ccc3c(c2)N(C[C@@H]2CC[C@H]21)C[C@@]1(CCCc2cc(Cl)ccc21)CO3 [Example 294, 2-(((1S,3′R,6′R,7′S,8′E,11′S,12′R)-6-chloro-11′,12′-dimethyl-13′,13′-dioxido-15′-oxo-3,4-dihydro-2H-spiro[naphthalene-1,22′-[20]oxa[13]thia[1,14]diazatetracyclo[14.7.2.0^3,6.0^19,24]pentacosa [8,16,18,24]tetraen]-7′-yl)oxy)-N-methylacetamide]",0.255 nM,410 nM
"C[C@@H]1[C@@H](C)C/C=C/[C@H](OCC(=O)N(C)C)[C@@H]2CC[C@H]2CN2C[C@@]3(CCCc4cc(Cl)ccc43)COc3ccc(cc32)C(=O)NS1(=O)=O [Example 295, 2-(((1S,3′R,6′R,7′S,8′E,11′S,12′R)-6-chloro-11′,12′-dimethyl-13′,13′-dioxido-15′-oxo-3,4-dihydro-2H-spiro[naphthalene-1,22′-[20]oxa[13]thia[1,14]diazatetracyclo[14.7.2.0^3,6.0^19,24]pentacosa [8,16,18,24]tetraen]-7′-yl)oxy)-N,N-dimethylacetamide]",0.19 nM,151 nM
"CC(C)NC(=O)CO[C@H]1/C=C/C[C@H](C)[C@@H](C)S(=O)(=O)NC(=O)c2ccc3c(c2)N(C[C@@H]2CC[C@H]21)C[C@@]1(CCCc2cc(Cl)ccc21)CO3 [Example 296, 2-(((1S,3′R,6′R,7′S,8′E,11′S,12′R)-6-chloro-11′,12′-dimethyl-13′,13′-dioxido-15′-oxo-3,4-dihydro-2H-spiro[naphthalene-1,22′-[20]oxa[13]thia[1,14]diazatetracyclo[14.7.2.0^3,6.0^19,24]pentacosa [8,16,18,24]tetraen]-7′-yl)oxy)-N-(1-methylethyl)acetamide]",0.496 nM,524 nM
"C[C@@H]1[C@@H](C)C/C=C/[C@H](OCC(=O)NCC(F)(F)F)[C@@H]2CC[C@H]2CN2C[C@@]3(CCCc4cc(Cl)ccc43)COc3ccc(cc32)C(=O)NS1(=O)=O [Example 297, 2-(((1S,3′R,6′R,7′S,8′E,11′S,12′R)-6-chloro-11′,12′-dimethyl-13′,13′-dioxido-15′-oxo-3,4-dihydro-2H-spiro[naphthalene-1,22′-[20]oxa[13]thia[1,14]diazatetracyclo[14.7.2.0^3,6.0^19,24]pentacosa [8,16,18,24]tetraen]-7′-yl)oxy)-N-(2,2,2-trifluoroethyl)acetamide]",0.654 nM,478 nM
"COCCNC(=O)CO[C@H]1/C=C/C[C@H](C)[C@@H](C)S(=O)(=O)NC(=O)c2ccc3c(c2)N(C[C@@H]2CC[C@H]21)C[C@@]1(CCCc2cc(Cl)ccc21)CO3 [Example 298, 2-(((1S,3′R,6′R,7′S,8′E,11′S,12′R)-6-chloro-11′,12′-dimethyl-13′,13′-dioxido-15′-oxo-3,4-dihydro-2H-[spiro[naphthalene-1,22′-20]oxa[13]thia[1,14]diazatetracyclo[14.7.2.0^3,6.0^19,24]pentacosa [8,16,18,24]tetraen]-7′-yl)oxy)-N-(2-methoxyethyl)acetamide]",0.425 nM,860 nM
"COCCN(C)C(=O)CO[C@H]1/C=C/C[C@H](C)[C@@H](C)S(=O)(=O)NC(=O)c2ccc3c(c2)N(C[C@@H]2CC[C@H]21)C[C@@]1(CCCc2cc(Cl)ccc21)CO3 [Example 299, 2-(((1S,3′R,6′R,7′S,8′E,11′S,12′R)-6-chloro-11′,12′-dimethyl-13′,13′-dioxido-15′-oxo-3,4-dihydro-2H-spiro[naphthalene-1,22′-[20]oxa[13]thia[1,14]diazatetracyclo[14.7.2.0^3,6.0^19,24]pentacosa [8,16,18,24]tetraen]-7′-yl)oxy)-N-(2-methoxyethyl)-N-methylacetamide]",0.275 nM,280 nM
"C[C@@H]1[C@@H](C)C/C=C/[C@H](OCC(=O)N(C)CCN(C)C)[C@@H]2CC[C@H]2CN2C[C@@]3(CCCc4cc(Cl)ccc43)COc3ccc(cc32)C(=O)NS1(=O)=O [Example 300, 2-(((1S,3′R,6′R,7′S,8′E,11′S,12′R)-6-chloro-11′,12′-dimethyl-13′,13′-dioxido-15′-oxo-3,4-dihydro-2H-spiro[naphthalene-1,22′-[20]oxa[13]thia[1,14]diazatetracyclo[14.7.2.0^3,6.0^19,24]pentacosa [8,16,18,24]tetraen]-7′-yl)oxy)-N-(2-(dimethylamino)ethyl)-N-methylacetamide]",0.24 nM,817 nM
"CONC(=O)CO[C@H]1/C=C/C[C@H](C)[C@@H](C)S(=O)(=O)NC(=O)c2ccc3c(c2)N(C[C@@H]2CC[C@H]21)C[C@@]1(CCCc2cc(Cl)ccc21)CO3 [Example 301, 2-(((1S,3′R,6′R,7′S,8′E,11′S,12′R)-6-chloro-11′,12′-dimethyl-13′,13′-dioxido-15′-oxo-3,4-dihydro-2H-spiro[naphthalene-1,22′-[20]oxa[13]thia[1,14]diazatetracyclo[14.7.2.0^3,6.0^19,24]pentacosa [8,16,18,24]tetraen]-7′-yl)oxy)-N-methoxyacetamide]",0.245 nM,844 nM
"C[C@@H]1[C@@H](C)C/C=C/[C@H](OCC(=O)NC2COC2)[C@@H]2CC[C@H]2CN2C[C@@]3(CCCc4cc(Cl)ccc43)COc3ccc(cc32)C(=O)NS1(=O)=O [Example 303, 2-(((1S,3′R,6′R,7′S,8′E,11′S,12′R)-6-chloro-11′,12′-dimethyl-13′,13′-dioxido-15′-oxo-3,4-dihydro-2H-spiro[naphthalene-1,22′-[20]oxa[13]thia[1,14]diazatetracyclo[14.7.2.0^3,6.0^19,24]pentacosa [8,16,18,24]tetraen]-7′-yl)oxy)-N-3-oxetanylacetamide]",0.2 nM,567 nM
"C[C@@H]1[C@@H](C)C/C=C/[C@H](OCC(=O)N2CC(O)C2)[C@@H]2CC[C@H]2CN2C[C@@]3(CCCc4cc(Cl)ccc43)COc3ccc(cc32)C(=O)NS1(=O)=O [Example 304, (1S,3′R,6′R,7′S,8′E,11′S,12′R)-6-chloro-7′-(2-(3-hydroxy-1-azetidinyl)-2-oxoethoxy)-11′,12′-dimethyl-3,4-dihydro-2H,15′H-spiro[naphthalene-1,22′-[20]oxa[13]thia[1,14]diazatetracyclo[14.7.2.0^3,6.0^19,24]pentacosa [8,16,18,24]tetraen]-15′-one 13′,13′-dioxide]",0.151 nM,2280 nM
"C[C@@H]1[C@@H](C)C/C=C/[C@H](OCC(=O)N2CC(C)(O)C2)[C@@H]2CC[C@H]2CN2C[C@@]3(CCCc4cc(Cl)ccc43)COc3ccc(cc32)C(=O)NS1(=O)=O [Example 305, (1S,3′R,6′R,7′S,8′E,11′S,12′R)-6-chloro-7′-(2-(3-hydroxy-3-methyl-1-azetidinyl)-2-oxoethoxy)-11′,12′-dimethyl-3,4-dihydro-2H,15′H-spiro[naphthalene-1,22′-[20]oxa[13]thia[1,14]diazatetracyclo[14.7.2.0^3,6.0^19,24]pentacosa [8,16,18,24]tetraen]-15′-one 13′,13′-dioxide]",0.177 nM,998 nM
"C[C@@H]1[C@@H](C)C/C=C/[C@H](OCC(=O)N2CC(O)(C(F)(F)F)C2)[C@@H]2CC[C@H]2CN2C[C@@]3(CCCc4cc(Cl)ccc43)COc3ccc(cc32)C(=O)NS1(=O)=O [Example 306, (1S,3′R,6′R,7′S,8′E,11′S,12′R)-6-chloro-7′-(2-(3-hydroxy-3-(trifluoromethyl)-1-azetidinyl)-2-oxoethoxy)-11′,12′-dimethyl-3,4-dihydro-2H,15′H-spiro[naphthalene-1,22′-[20]oxa[13]thia[1,14]diazatetracyclo[14.7.2.0^3,6.0^19,24]pentacosa [8,16,18,24]tetraen]-15′-one 13′,13′-dioxide]",1.2 nM,1140 nM
"COC1CN(C(=O)CO[C@H]2/C=C/C[C@H](C)[C@@H](C)S(=O)(=O)NC(=O)c3ccc4c(c3)N(C[C@@H]3CC[C@H]32)C[C@@]2(CCCc3cc(Cl)ccc32)CO4)C1 [Example 307, (1S,3′R,6′R,7′S,8′E,11′S,12′R)-6-chloro-7′-(2-(3-methoxy-1-azetidinyl)-2-oxoethoxy)-11′,12′-dimethyl-3,4-dihydro-2H,15′H-spiro[naphthalene-1,22′-[20]oxa[13]thia[1,14]diazatetracyclo[14.7.2.0^3,6.0^19,24]pentacosa [8,16,18,24]tetraen]-15′-one 13′,13′-dioxide]",0.127 nM,302 nM
